In US11252963B2, “Pesticidally active pyrazole derivatives” (SYNGENTA PARTICIPATIONS AG, priority 2017, dated 2022):
Like-named read-outs stand apart in the source and are kept apart here.

Assays:
Format in all cases: in vivo
[1] = test system: Diabrotica balteata (Corn root worm); test: Diabrotica balteata (Corn root worm) mortality test on sprayed maize sprouts; details: 96 h
Method: Diabrotica balteata (Corn root worm):
Maize sprouts placed onto an agar layer in 24-well microtiter plates were treated with aqueous test solutions prepared from 10′000 ppm DMSO stock solutions by spraying. After drying, the plates were infested with L2 larvae (6 to 10 per well). The samples were assessed for mortality 4 days after infestation.

[2] = test system: Euschistus heros (Neotropical Brown Stink Bug); test: Euschistus heros (Neotropical Brown Stink Bug): feeding/contact activity; details: 120 h
Method: Euschistus heros (Neotropical Brown Stink Bug): Feeding/Contact Activity
Soybean leaves on agar in 24-well microtiter plates were sprayed with aqueous test solutions prepared from 10,000 ppm DMSO stock solutions. After drying the leaves were infested with N2 nymphs. The samples were assessed for mortality 5 days after infestation.

[3] = test system: Myzus persicae (Green Peach Aphid); test: Myzus persicae (Green Peach Aphid): feeding/contact activity; details: foliar, 144 h
Method: Myzus persicae (Green Peach Aphid): Feeding/Contact Activity
Sunflower leaf discs were placed onto agar in a 24-well microtiter plate and sprayed with aqueous test solutions prepared from 10,000 ppm DMSO stock solutions. After drying, the leaf discs were infested with an aphid population of mixed ages. The samples were assessed for mortality 6 days after infestation.

[4] = test system: Plutella xylostella (Diamond Back Moth); test: Plutella xylostella (Diamond Back Moth): feeding/contact activity; details: 120 h
Method: Plutella xylostella (Diamond Back Moth): Feeding/Contact Activity
24-well microtiter plates with artificial diet were treated with aqueous test solutions prepared from 10′000 ppm DMSO stock solutions by pipetting. After drying, the plates were infested with L2 larvae (10 to 15 per well). The samples were assessed for mortality 5 days after infestation.

[5] = test system: Spodoptera littoralis (Egyptian Cotton Leaf Worm); test: Spodoptera littoralis (Egyptian Cotton Leaf Worm): feeding/contact activity; details: foliar, 72 h
Method: Spodoptera littoralis (Egyptian Cotton Leaf Worm): Feeding/Contact Activity
Cotton leaf discs were placed onto agar in 24-well microtiter plates and sprayed with aqueous test solutions prepared from 10′000 ppm DMSO stock solutions. After drying the leaf discs were infested with five L1 larvae. The samples were assessed for mortality 3 days after infestation.

[6] = test system: Tetranychus urticae (Two-Spotted Spider Mite); test: Tetranychus urticae (Two-Spotted Spider Mite): feeding/contact activity; details: foliar, 192 h, read-out: mortality on mixed population (mobile stages)
Method: Tetranychus urticae (Two-Spotted Spider Mite): Feeding/Contact Activity
Bean leaf discs on agar in 24-well microtiter plates were sprayed with aqueous test solutions prepared from 10′000 ppm DMSO stock solutions. After drying the leaf discs were infested with a mite population of mixed ages. The samples were assessed for mortality on mixed population (mobile stages) 8 days after infestation.

[7] = test system: Thrips tabaci (Onion Thrips); test: Thrips tabaci (Onion Thrips): feeding/contact activity; details: foliar, 144 h
Method: Thrips tabaci (Onion Thrips): Feeding/Contact Activity
Sunflower leaf discs were placed on agar in 24-well microtiter plates and sprayed with aqueous test solutions prepared from 10′000 ppm DMSO stock solutions. After drying the leaf discs were infested with a thrips population of mixed ages. The samples were assessed for mortality 6 days after infestation.

[8] = application rate 200 ppm, maize sprouts sprayed, L2 larvae, assessed 4 days after infestation, read-out: mortality
[9] = application rate 200 ppm, soybean leaves sprayed, N2 nymphs, assessed 5 days after infestation, read-out: mortality
[10] = application rate 200 ppm, sunflower leaf discs sprayed, aphid population of mixed ages, assessed 6 days after infestation, read-out: mortality
[11] = application rate 200 ppm, artificial diet treated by pipetting, L2 larvae, assessed 5 days after infestation, read-out: mortality
[12] = application rate 200 ppm, cotton leaf discs sprayed, L1 larvae, assessed 3 days after infestation, read-out: mortality
[13] = application rate 200 ppm, bean leaf discs sprayed, mite population of mixed ages, assessed 8 days after infestation
[14] = application rate 200 ppm, sunflower leaf discs sprayed, thrips population of mixed ages, assessed 6 days after infestation, read-out: mortality

Measured: mortality at 200 ppm

CCOC(=O)N(C(=O)c1cc(-c2cnn(-c3c(OC(F)F)c(C(F)(F)C(F)(F)F)nn3C)c2)ccc1Cl)C1(C#N)CC1 [Compound 6, ethyl N-[2-chloro-5-[1-[4-(difluoromethoxy)-2-methyl-5-(1,1,2,2,2-pentafluoroethyl)pyrazol-3-yl]pyrazol-4-yl]benzoyl]-N-(1-cyanocyclopropyl)carbamate]
≥ 80%: [1] | [2]; in Glycine max | [3] | [4] | [5] | [6] | [7]

C#CCN(C(=O)c1cc(-c2cnn(-c3c(OC(F)F)c(C(F)(F)C(F)(F)F)nn3C)c2)ccc1Cl)C1CC1 [Compound 2, 2-chloro-N-cyclopropyl-5-[1-[4-(difluoromethoxy)-2-methyl-5-(1,1,2,2,2-pentafluoroethyl)pyrazol-3-yl]pyrazol-4-yl]-N-prop-2-ynyl-benzamide]
≥ 80%: [1]; [8] | [2]; [9] | [3]; [10] | [4]; [11] | [5]; [12] | [6]; [13] | [7]; [14]

COCN(C(=O)c1cc(-c2cnn(-c3c(OC(F)F)c(C(F)(F)C(F)(F)F)nn3C)c2)ccc1Cl)C1(C#N)CC1 [Compound 1, 2-chloro-N-(1-cyanocyclopropyl)-5-[1-[4-(difluoromethoxy)-2-methyl-5-(1,1,2,2,2-pentafluoroethyl)pyrazol-3-yl]pyrazol-4-yl]-N-(methoxymethyl)benzamide]
≥ 80%: [1]; [8] | [2]; [9] | [3]; [10] | [4]; [11] | [5]; [12] | [6]; [13] | [7]; [14]

COCN(C(=O)c1cc(-c2cnn(-c3c(OC(F)F)c(C(F)(F)C(F)(F)F)nn3C)c2)cnc1Cl)C1(C#N)CC1 [Compound 18, 2-chloro-N-(1-cyanocyclopropyl)-5-[1-[4-(difluoromethoxy)-2-methyl-5-(1,1,2,2,2-pentafluoroethyl)pyrazol-3-yl]pyrazol-4-yl]-N-(methoxymethyl)pyridine-3-carboxamide]
≥ 80%: [1]; [8] | [2]; [9] | [3]; [10] | [4]; [11] | [5]; [12] | [6]; [13] | [7]; [14]
